Measured values from ChEMBL document CHEMBL1145498, “A systematic interaction map of validated kinase inhibitors with Ser/Thr kinases” (Proc Natl Acad Sci U S A, 2007).

Experiments:
[1] = target: TRAF2 and NCK-interacting protein kinase (Homo sapiens) (UniProt Q9UKE5)
[2] = target: Dual specificity protein kinase CLK3 (Homo sapiens) (UniProt P49761)
[3] = target: Casein kinase I isoform gamma-1 (Homo sapiens) (UniProt Q9HCP0)
[4] = target: Calcium/calmodulin-dependent protein kinase type 1G (Homo sapiens) (UniProt Q96NX5)
Calcium/calmodulin-dependent protein kinase type 1G (Homo sapiens), sequence (Q96NX5 whole entry): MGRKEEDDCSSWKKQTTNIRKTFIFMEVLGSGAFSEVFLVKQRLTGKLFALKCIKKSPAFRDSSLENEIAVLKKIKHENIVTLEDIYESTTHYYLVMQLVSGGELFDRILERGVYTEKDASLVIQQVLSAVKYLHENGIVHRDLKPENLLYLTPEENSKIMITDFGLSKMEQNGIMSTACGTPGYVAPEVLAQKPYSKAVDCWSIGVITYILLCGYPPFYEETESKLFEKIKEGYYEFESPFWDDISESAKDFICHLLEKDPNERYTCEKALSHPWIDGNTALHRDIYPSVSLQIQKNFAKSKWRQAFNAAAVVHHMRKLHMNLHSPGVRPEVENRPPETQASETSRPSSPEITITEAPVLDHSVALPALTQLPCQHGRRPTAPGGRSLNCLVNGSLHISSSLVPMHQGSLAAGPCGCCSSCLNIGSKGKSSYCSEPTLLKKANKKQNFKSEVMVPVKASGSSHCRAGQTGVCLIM

[5] = target: Serine/threonine-protein kinase pim-1 (Homo sapiens) (UniProt P11309)
Serine/threonine-protein kinase pim-1 (Homo sapiens), sequence (P11309 whole entry, looked up): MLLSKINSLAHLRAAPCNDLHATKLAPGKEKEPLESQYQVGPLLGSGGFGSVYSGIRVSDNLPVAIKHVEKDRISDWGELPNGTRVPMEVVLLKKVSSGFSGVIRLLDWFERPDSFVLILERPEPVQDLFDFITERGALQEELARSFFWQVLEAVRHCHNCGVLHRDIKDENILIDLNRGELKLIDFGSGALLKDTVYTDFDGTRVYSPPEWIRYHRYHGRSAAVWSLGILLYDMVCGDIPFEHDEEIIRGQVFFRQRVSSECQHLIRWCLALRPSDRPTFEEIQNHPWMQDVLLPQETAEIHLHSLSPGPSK

[6] = target: Serine/threonine-protein kinase 10 (Homo sapiens) (UniProt O94804)
[7] = target: T1, Serine/threonine-protein kinase 4 (Homo sapiens) (UniProt Q13043)
T1 sequence (whole entry): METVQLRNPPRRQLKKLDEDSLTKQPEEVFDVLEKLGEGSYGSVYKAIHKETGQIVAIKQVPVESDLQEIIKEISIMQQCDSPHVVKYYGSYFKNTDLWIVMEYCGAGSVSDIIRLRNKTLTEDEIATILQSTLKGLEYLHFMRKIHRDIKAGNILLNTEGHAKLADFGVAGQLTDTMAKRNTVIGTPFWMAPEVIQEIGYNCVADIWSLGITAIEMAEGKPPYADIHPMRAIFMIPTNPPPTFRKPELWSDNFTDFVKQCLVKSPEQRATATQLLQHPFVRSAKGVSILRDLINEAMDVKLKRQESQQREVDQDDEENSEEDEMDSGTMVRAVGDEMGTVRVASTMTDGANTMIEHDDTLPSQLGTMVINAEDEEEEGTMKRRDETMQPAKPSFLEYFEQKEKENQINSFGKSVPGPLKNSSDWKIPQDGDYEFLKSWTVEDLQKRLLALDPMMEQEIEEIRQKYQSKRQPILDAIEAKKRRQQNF

[8] = target: Serine/threonine-protein kinase 16 (Homo sapiens) (UniProt O75716)
Serine/threonine-protein kinase 16 (Homo sapiens), sequence (O75716 whole entry): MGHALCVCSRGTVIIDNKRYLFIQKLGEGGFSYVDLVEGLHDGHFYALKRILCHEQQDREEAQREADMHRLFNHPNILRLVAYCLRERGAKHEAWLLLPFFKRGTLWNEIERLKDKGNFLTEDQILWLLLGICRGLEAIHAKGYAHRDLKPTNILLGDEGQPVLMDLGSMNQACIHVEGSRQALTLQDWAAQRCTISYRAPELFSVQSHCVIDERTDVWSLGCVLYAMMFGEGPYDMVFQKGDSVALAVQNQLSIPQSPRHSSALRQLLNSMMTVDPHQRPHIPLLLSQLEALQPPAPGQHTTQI

[9] = target: Calcium/calmodulin-dependent protein kinase kinase 2 (Homo sapiens, UniProt Q96RR4)
Calcium/calmodulin-dependent protein kinase kinase 2, sequence (Q96RR4 2-588 limits assumed): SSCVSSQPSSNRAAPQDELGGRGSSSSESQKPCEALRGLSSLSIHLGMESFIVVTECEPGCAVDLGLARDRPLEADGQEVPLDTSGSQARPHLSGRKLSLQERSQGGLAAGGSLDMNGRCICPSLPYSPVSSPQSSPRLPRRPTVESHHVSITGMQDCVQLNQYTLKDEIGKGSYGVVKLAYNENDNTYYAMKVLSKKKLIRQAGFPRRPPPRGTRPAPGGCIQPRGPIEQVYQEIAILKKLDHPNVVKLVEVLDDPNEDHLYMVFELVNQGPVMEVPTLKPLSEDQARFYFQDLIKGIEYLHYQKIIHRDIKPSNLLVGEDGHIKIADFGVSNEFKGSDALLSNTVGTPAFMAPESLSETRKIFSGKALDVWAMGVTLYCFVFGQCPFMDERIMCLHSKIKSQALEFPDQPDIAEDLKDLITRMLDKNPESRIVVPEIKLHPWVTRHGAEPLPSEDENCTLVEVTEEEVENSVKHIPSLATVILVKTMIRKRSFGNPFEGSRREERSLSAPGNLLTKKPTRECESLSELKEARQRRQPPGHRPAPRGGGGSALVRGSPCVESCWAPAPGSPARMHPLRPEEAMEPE

[10] = target: Serine/threonine-protein kinase 25 (Homo sapiens) (UniProt O00506)
Serine/threonine-protein kinase 25 (Homo sapiens), sequence (O00506 whole entry, looked up): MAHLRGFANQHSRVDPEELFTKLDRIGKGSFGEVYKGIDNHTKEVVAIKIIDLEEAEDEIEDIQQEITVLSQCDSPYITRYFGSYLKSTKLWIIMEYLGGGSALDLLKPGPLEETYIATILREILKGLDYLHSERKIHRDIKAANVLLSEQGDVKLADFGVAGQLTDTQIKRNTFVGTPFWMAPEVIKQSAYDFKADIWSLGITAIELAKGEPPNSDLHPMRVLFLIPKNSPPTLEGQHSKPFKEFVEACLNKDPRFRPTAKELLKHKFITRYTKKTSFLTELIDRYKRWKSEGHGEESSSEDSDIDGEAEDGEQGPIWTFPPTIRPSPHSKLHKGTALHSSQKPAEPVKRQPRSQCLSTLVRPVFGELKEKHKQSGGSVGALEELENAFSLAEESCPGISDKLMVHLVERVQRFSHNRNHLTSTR

Dual specificity protein kinase CLK3 (Homo sapiens), sequence (P49761 whole entry, looked up, canonical isoform): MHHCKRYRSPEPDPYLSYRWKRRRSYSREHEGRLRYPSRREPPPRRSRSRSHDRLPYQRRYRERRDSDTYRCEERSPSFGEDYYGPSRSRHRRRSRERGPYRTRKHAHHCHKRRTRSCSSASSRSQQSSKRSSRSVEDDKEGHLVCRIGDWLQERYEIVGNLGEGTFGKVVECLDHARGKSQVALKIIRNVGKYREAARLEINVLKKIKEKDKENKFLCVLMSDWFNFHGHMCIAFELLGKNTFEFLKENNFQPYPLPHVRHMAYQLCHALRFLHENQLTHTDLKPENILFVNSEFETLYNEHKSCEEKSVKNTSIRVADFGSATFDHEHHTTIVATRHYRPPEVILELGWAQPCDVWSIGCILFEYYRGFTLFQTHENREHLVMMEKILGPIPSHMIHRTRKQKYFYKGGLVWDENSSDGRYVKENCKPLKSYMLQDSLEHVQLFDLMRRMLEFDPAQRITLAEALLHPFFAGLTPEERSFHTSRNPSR
Casein kinase I isoform gamma-1 (Homo sapiens), sequence (Q9HCP0 whole entry, looked up, canonical isoform): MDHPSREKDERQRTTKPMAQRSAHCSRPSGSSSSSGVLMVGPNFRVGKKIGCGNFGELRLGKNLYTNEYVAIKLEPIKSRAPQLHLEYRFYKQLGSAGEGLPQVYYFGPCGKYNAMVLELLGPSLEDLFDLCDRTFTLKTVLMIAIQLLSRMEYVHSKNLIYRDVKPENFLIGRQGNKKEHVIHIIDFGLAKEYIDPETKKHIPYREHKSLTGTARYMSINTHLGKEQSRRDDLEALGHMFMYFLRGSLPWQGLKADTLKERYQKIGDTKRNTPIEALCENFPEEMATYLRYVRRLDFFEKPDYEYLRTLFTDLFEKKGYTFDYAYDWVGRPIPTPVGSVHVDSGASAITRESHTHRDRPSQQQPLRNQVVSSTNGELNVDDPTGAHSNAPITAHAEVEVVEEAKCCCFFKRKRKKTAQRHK
TRAF2 and NCK-interacting protein kinase (Homo sapiens), sequence (Q9UKE5 whole entry, looked up): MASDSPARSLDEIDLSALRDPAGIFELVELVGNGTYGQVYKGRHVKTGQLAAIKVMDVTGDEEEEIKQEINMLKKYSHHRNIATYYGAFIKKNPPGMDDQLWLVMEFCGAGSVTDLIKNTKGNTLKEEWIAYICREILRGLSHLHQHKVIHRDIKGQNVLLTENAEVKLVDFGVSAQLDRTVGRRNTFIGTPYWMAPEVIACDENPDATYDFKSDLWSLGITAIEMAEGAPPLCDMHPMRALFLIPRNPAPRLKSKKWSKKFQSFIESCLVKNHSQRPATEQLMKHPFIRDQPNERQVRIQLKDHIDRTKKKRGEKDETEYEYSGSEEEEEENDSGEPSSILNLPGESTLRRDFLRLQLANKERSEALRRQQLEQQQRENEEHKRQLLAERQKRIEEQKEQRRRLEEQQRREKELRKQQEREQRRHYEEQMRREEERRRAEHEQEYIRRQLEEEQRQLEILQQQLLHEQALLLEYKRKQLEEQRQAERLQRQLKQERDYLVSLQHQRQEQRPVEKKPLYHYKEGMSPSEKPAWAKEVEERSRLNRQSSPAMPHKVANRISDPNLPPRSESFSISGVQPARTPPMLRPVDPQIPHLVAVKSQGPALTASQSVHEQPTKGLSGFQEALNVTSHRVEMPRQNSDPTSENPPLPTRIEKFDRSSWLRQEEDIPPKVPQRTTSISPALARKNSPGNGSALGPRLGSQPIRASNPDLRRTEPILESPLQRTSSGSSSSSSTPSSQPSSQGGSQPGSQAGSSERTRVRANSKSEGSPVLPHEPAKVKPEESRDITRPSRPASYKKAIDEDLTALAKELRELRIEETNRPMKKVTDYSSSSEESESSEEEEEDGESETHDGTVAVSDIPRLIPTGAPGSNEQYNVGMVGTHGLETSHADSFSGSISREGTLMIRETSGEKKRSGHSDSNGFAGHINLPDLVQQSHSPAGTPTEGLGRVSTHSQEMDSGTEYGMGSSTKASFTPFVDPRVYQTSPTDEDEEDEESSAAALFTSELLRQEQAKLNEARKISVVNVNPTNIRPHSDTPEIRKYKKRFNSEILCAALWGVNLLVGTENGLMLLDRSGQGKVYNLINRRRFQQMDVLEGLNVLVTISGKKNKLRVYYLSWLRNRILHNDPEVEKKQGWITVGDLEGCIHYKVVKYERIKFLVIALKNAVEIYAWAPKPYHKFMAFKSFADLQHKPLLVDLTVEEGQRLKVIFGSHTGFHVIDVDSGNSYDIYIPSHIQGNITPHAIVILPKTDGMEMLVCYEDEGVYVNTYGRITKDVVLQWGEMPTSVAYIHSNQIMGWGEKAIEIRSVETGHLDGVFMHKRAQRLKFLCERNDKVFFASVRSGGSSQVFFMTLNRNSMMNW

| SMILES | ΔTm [1] | ΔTm [2] | ΔTm [3] | ΔTm [4] | ΔTm [5] | ΔTm [6] | ΔTm [7] | ΔTm [8] | ΔTm [9] | ΔTm [10] |
| --- | --- | --- | --- | --- | --- | --- | --- | --- | --- | --- |
| COc1cc2ncnc(Nc3ccc(NC(=O)c4ccccc4)cc3)c2cc1OC [ANILINOQUINAZOLINE1] | 0.9 °C | 0.4 °C | 1.1 °C | 2 °C | 0.7 °C | 0.1 °C | 0.6 °C | 0.4 °C | 1.3 °C |  |
| O=c1cc(N2CCOCC2)oc2c1ccc1ccccc12 | 0.3 °C | 0.1 °C | 0.4 °C | 0.1 °C | 1.7 °C | 0.4 °C | 0.2 °C | 0.4 °C | -0.3 °C | 0.6 °C |
| CCOc1cc2ncnc(Nc3cccc(Br)c3)c2cc1OCC | 3.1 °C | 0.3 °C | 1.2 °C | 0.4 °C | 0.2 °C | 10.3 °C | 2.2 °C | 0.9 °C | 2.7 °C | 1.5 °C |
| Cc1nc2sccn2c(=O)c1CCN1CCC(=C(c2ccccc2)c2ccc(F)cc2)CC1 | 2.9 °C | 3 °C | -0.2 °C | 0.4 °C | 6.6 °C | 3.1 °C | 3.6 °C | 3.1 °C | 0.6 °C | 0.3 °C |
| Nc1cccc(-c2cc3c(Oc4cccc(O)c4)ncnc3[nH]2)c1 | -0.4 °C | 0.9 °C | 1.5 °C | 1 °C | 0.7 °C | 5.9 °C | 5.1 °C | 3.5 °C | 1.4 °C |  |
| COc1ccc(S(=O)(=O)N(CCO)c2ccccc2CN(C)C/C=C/c2ccc(Cl)cc2)cc1 | 1.3 °C | -0.3 °C | 0.1 °C | 0.3 °C | 1.3 °C | 0.2 °C | -0.2 °C | 0.5 °C | 0 °C |  |
| CCOc1ccc(/C=C2/SC(=O)N(CCN)C2=O)cc1 [HIAZOLIDINEDIONE1] | -0.4 °C | 0.1 °C | 0.3 °C | 0.2 °C | -0.4 °C | 0.8 °C | 0.4 °C | -0.1 °C | -0.4 °C |  |
| NC(=O)c1ccc2[nH]c(-c3ccc(Oc4ccc(Cl)cc4)cc3)nc2c1 | -1.6 °C | 0.5 °C | 1.7 °C | 2.6 °C | 0.4 °C | 0.3 °C | -0.2 °C | 4.7 °C | 2.4 °C |  |
| N#CC(C#N)=Cc1ccc(O)c(O)c1 [TYRPHOSTIN 23] | 0.2 °C | 0.4 °C | 0.4 °C | 0 °C | 1.5 °C | 0.5 °C | 0.6 °C | 0.4 °C | -0.7 °C | -0.2 °C |
| CN(C)c1ncnc2nc[nH]c12 [DIMETHYLADENINE] | 0 °C | 0.4 °C | -0.1 °C | -0.1 °C | 0 °C | -0.4 °C | 1.1 °C | 0.5 °C | 1 °C | 0.9 °C |
| Cc1[nH]c(/C=C2\C(=O)Nc3ccc(S(=O)(=O)N(C)c4cccc(Cl)c4)cc32)c(C)c1C(=O)N1CCN(C)CC1 | 0.4 °C | 3.7 °C | 0.6 °C | 1.7 °C | -0.2 °C | 1.8 °C | 0.1 °C | 0.6 °C | 1.2 °C |  |
| COc1ccc(Cl)cc1NC(=O)Nc1cc(C)nc2ccccc12 |  | -0.1 °C | 1.4 °C | 4.4 °C | -1.1 °C | 0.6 °C |  | 0.4 °C | 0.4 °C |  |
| CC(C)(C)n1nc(-c2cccc3ccccc23)c2c(N)ncnc21 | 4.5 °C | 0.2 °C | 0.1 °C | -0.3 °C | -0.2 °C | 4 °C | 3.2 °C | 0.7 °C | 0.7 °C | 1.3 °C |
| COc1cccc(-c2cc(=O)c3ccccc3o2)c1N | -0.1 °C | 0 °C | 0.1 °C | -0.2 °C | 0.9 °C | 0.4 °C | -0.1 °C | 0.6 °C | -0.4 °C | 0.5 °C |
| COc1cc(C[C@H]2C(=O)OC[C@@H]2Cc2ccc(OC)c(OC)c2)ccc1O [ARCTIGENIN] | -0.2 °C | 0 °C | 0 °C | -0.3 °C | -0.3 °C | 0.7 °C | 0.8 °C | 0 °C | -0.9 °C | 0.1 °C |
| O=C1NC(=O)C(c2cn(CCCn3ccnc3)c3ccccc23)=C1Nc1ccccc1 | -0.7 °C | 3 °C | 0.6 °C | 1 °C | 3.1 °C | 2 °C | 0.8 °C | 0.6 °C | 3.8 °C |  |
| O=C1Nc2ccccc2/C1=C/c1cnc[nH]1 | 6.1 °C | 1 °C | 1.2 °C | 1.2 °C | 3 °C | 4.2 °C | 8.4 °C | 7.5 °C | 3.1 °C | 6.3 °C |
| O=C(O)c1cc(N(Cc2ccccc2O)Cc2cc(O)ccc2O)ccc1O [LAVENDUSTIN A] | 0 °C | 0.3 °C | 1.4 °C | 0.2 °C | 1.1 °C | 0.1 °C | 0.5 °C | 2.6 °C | 0.5 °C |  |
| CC(C)n1cnc2/c(=N/c3cccc(Cl)c3)nc(NCCO)[nH]c21 | 3.1 °C | 4 °C | 6.1 °C | 0.1 °C | -0.3 °C | 2 °C | 3.4 °C | 2.6 °C | 2.3 °C | 2.9 °C |
| CN(c1cccnc1)c1cc2c(Nc3ccc(F)c(Cl)c3)c(C#N)cnc2cn1 | -1.2 °C | 1.2 °C | 1.4 °C | 2.4 °C | 0.1 °C | 2.8 °C | 0.4 °C | 8.7 °C | 1.9 °C |  |
| C[C@@H]1C[C@H]2O[C@@H]2/C=C\C=C\C(=O)Cc2c(Cl)c(O)cc(O)c2C(=O)O1 [RADICICOL] | -0.3 °C | 0 °C | 0.3 °C | 0.6 °C | -0.1 °C | -0.4 °C | 0.3 °C | 0.3 °C | -0.1 °C | -0.6 °C |
| O=c1c(O)c(-c2ccc(O)c(O)c2)oc2cc(O)cc(O)c12 [QUERCETIN] | 3.3 °C | 5.4 °C | 3.2 °C | 2.7 °C | 8.1 °C | 5.5 °C | 5.4 °C | 4.8 °C | 5.5 °C | 5.3 °C |
| O=C(Nc1cccc(Nc2cc(Nc3cccc(C(F)(F)F)c3)ncn2)c1)C1CC1 | -0.2 °C | 1.5 °C | 1 °C | 3.7 °C | 1 °C | 0 °C | 1.4 °C | 3.4 °C | 1.7 °C |  |
| CN(C)C[C@@H]1CCn2cc(c3ccccc32)C2=C(C(=O)NC2=O)c2cn(c3ccccc23)CCO1 [RUBOXISTAURIN] | -0.3 °C | 0.3 °C | 0.5 °C | 0.1 °C |  | 7.2 °C | 0.6 °C | 0.8 °C | 1.6 °C |  |
| CCN1/C(=C/C(C)=O)Sc2ccc(OC)cc21 | 0.1 °C |  | 2.5 °C | -0.5 °C | 6.3 °C | 0.4 °C | 0.1 °C | 1.7 °C | 0.4 °C |  |
| Cc1ccc(NC2=CC(=O)c3sc(C)nc3C2=O)cc1 | -1.4 °C | -0.5 °C | -0.6 °C | -1.4 °C | -1.3 °C | -0.7 °C | -1.3 °C | -1.2 °C | -2.4 °C |  |
| CN(C)CCCn1cc(C2=C(c3c[nH]c4ccccc34)C(=O)NC2=O)c2ccccc21 [GF-109203] | 2 °C | 2.7 °C | 1 °C | 0.6 °C |  | 6.7 °C | 5.7 °C | 2.1 °C | 2.6 °C | 2.7 °C |
| CSc1nc(-c2ccc(F)cc2)c(-c2ccnc(NC(C)c3ccccc3)c2)[nH]1 (racemic) | -1.2 °C | -0.2 °C | 3.6 °C | 1.9 °C | -0.4 °C | 1.9 °C | 1.3 °C | -0.1 °C | 0.7 °C |  |
| Cc1c2ccncc2c(C)c2c1[nH]c1ccccc12 [ELLIPTECINE] | -0.2 °C | 4.2 °C | 0.6 °C | 0.3 °C | 4.8 °C | 1.9 °C | 4 °C | 10.7 °C | 1.3 °C |  |
